The text below walks through data of article PMC10682951, “Structure-function and rational design of a spider toxin Ssp1a at human voltage-gated sodium channel subtypes” (Frontiers in Pharmacology, 2023).

Each structure is given as a SMILES string.

Type in all cases: cell-based
In one assay the target is T1, hNaV1.7 (Homo sapiens, UniProt Q15858).
T1 construct: host or cells: HEK293
Nature of the assay: Automated whole-cell patch-clamp (QPatch 16X), hNaV1.7. The settings on record: HEK293 cells expressing hNaV1.7 + β1 subunit; QPatch 16X; holding −80 mV, step to 0 mV; peptide incubated 2 min; 0.1% BSA; mean, SEM and n (3-9). In short, it runs like this:
(§1)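 HEK293 cells stably expressing the channel (human subtypes with β1 subunit), held at −80 mV; 2 min peptide pre-incubation, then 20 ms steps to 0 mV after a 200 ms −120 mV conditioning pulse. Extracellular pH 7.3 with 20 mM TEA-Cl, CsF-based pipette solution, 0.1% BSA; IC50 from four-parameter Hill fit.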

The target in another assay is T2, hNaV1.3 (Homo sapiens, UniProt Q9NY46).
T2 construct: host or cells: HEK293
T2 sequence (Q9NY46 whole entry): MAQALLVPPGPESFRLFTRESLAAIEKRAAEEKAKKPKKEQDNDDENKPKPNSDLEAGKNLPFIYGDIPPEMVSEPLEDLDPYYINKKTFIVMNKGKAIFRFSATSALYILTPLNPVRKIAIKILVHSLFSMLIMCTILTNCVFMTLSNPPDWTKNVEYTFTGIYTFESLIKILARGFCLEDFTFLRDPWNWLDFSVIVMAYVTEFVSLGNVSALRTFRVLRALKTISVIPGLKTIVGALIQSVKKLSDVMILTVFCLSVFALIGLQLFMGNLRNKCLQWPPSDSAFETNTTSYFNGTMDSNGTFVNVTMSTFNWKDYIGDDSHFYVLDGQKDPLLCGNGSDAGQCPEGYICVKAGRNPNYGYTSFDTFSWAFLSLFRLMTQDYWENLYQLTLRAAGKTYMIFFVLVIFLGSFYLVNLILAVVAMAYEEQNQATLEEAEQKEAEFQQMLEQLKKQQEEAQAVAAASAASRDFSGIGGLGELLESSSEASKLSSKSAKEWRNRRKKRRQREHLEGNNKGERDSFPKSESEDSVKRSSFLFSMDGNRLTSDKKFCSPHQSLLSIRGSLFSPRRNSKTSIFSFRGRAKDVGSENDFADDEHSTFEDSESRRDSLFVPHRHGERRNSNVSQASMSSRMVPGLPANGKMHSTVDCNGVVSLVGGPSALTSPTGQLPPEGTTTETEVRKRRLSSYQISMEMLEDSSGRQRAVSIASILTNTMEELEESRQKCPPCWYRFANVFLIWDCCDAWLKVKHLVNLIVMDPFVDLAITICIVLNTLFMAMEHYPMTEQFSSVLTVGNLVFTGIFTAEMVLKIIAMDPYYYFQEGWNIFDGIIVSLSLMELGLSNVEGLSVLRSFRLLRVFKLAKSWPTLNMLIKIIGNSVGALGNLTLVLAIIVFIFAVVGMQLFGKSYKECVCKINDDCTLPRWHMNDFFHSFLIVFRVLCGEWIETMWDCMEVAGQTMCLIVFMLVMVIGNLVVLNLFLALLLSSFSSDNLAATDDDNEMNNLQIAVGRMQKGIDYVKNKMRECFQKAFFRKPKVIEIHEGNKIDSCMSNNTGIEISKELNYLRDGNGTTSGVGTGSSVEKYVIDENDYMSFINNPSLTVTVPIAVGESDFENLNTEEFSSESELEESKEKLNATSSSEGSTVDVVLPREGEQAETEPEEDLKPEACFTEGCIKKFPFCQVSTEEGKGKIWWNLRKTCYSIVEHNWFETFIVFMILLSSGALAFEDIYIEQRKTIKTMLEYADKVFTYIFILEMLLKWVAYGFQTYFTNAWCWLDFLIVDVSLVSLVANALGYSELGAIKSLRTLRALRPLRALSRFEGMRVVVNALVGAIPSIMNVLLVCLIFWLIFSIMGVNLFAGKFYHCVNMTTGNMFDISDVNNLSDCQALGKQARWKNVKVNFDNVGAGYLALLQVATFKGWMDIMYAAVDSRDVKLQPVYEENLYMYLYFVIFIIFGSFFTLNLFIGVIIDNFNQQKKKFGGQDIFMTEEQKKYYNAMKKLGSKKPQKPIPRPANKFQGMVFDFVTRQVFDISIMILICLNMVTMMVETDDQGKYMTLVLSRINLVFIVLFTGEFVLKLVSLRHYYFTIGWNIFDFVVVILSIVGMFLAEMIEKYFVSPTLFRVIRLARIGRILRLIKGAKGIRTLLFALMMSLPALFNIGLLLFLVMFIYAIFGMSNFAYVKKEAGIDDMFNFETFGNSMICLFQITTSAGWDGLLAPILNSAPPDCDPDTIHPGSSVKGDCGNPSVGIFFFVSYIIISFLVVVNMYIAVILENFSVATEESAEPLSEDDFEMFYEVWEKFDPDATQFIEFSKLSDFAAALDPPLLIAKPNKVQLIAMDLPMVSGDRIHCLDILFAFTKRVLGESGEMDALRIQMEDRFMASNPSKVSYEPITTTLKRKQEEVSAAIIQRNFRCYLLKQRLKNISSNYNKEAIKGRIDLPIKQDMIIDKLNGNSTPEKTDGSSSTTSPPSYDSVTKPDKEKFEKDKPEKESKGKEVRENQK
T2 sequence (Q07699 19-218, further chain): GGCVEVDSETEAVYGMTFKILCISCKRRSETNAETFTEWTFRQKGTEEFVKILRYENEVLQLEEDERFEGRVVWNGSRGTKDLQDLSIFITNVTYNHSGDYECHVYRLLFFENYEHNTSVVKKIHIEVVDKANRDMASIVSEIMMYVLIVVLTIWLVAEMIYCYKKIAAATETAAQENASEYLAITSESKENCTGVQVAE
In words: Automated whole-cell patch-clamp (QPatch 16X), hNaV1.3. As to conditions: HEK293 cells expressing hNaV1.3 + β1 subunit; QPatch 16X; holding −80 mV, step to 0 mV; peptide incubated 2 min; 0.1% BSA; mean, SEM and n (3-12). In short, it runs like this: as §1

The next assay has as its target T3, hNaV1.2 (Homo sapiens, UniProt Q99250).
T3 construct: host or cells: HEK293
Nature of the assay: Automated whole-cell patch-clamp (QPatch 16X), hNaV1.2. As to conditions: HEK293 cells expressing hNaV1.2 + β1 subunit; QPatch 16X; holding −80 mV, step to 0 mV; peptide incubated 2 min; 0.1% BSA; mean, SEM and n (2-7). An outline of the steps:
as §1

T1 sequence (Q15858 whole entry): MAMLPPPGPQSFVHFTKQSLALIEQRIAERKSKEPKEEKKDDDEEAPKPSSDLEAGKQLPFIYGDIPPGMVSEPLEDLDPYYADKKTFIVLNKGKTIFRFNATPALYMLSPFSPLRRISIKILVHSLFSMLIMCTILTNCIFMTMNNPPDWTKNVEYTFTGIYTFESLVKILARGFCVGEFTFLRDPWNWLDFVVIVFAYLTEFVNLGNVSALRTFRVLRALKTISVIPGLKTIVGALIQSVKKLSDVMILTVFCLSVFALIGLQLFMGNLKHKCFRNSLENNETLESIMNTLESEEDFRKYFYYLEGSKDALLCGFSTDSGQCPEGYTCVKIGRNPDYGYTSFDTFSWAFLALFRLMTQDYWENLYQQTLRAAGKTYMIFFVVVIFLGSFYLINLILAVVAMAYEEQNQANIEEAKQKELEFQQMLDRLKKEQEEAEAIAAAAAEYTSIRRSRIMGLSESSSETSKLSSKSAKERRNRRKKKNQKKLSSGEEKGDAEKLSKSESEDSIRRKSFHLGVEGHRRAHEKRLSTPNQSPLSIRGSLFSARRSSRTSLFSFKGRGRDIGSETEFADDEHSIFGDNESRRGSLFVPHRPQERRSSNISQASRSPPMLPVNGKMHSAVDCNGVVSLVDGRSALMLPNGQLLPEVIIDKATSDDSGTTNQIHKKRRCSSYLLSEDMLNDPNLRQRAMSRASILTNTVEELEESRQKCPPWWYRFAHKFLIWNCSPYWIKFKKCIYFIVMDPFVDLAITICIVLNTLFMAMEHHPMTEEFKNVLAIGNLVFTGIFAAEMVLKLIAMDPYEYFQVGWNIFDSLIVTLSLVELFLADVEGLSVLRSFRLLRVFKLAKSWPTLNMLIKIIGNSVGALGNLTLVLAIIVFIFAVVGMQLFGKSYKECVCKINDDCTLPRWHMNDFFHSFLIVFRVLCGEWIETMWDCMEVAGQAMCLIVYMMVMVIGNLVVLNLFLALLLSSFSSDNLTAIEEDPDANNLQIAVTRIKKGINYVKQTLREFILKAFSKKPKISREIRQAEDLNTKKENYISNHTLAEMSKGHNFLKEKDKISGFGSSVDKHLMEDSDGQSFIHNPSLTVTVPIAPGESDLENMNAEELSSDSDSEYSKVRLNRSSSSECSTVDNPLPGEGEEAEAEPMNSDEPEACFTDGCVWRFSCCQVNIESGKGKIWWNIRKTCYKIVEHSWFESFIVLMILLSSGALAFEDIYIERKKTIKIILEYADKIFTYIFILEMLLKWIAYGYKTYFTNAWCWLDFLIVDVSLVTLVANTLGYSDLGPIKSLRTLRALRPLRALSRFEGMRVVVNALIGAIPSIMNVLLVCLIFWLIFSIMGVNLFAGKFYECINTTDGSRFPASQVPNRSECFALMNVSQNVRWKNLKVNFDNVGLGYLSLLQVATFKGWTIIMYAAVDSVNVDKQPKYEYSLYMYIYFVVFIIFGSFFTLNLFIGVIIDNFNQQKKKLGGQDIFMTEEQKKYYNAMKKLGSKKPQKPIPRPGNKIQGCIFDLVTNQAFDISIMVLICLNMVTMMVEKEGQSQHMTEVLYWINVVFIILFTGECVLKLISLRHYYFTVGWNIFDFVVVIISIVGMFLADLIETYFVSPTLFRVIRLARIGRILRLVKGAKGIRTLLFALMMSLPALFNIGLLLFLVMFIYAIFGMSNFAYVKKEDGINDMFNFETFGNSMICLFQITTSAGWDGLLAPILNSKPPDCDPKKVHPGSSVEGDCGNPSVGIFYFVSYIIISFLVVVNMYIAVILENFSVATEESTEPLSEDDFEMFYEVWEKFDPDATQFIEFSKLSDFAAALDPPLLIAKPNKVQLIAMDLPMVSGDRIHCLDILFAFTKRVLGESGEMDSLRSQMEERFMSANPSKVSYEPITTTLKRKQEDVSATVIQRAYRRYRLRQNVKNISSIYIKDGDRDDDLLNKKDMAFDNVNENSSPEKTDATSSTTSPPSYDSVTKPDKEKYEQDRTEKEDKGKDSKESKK
T1 sequence (Q07699 19-218, further chain): as the sequence (Q07699 19-218, further chain) above

For the molecule `CC(C)C[C@H](NC(=O)[C@H](CC(=O)O)NC(=O)[C@H](Cc1c[nH]c2ccccc12)NC(=O)[C@H](CCCNC(=N)N)NC(=O)[C@@H]1CSSC[C@@H]2NC(=O)[C@H](CCCCN)NC(=O)[C@H](CC(N)=O)NC(=O)[C@H](CC(N)=O)NC(=O)[C@H](CC(N)=O)NC(=O)[C@@H]3CCCN3C(=O)[C@H](CC(=O)O)NC(=O)[C@@H]3CSSC[C@H](NC(=O)[C@H](C(C)C)NC(=O)[C@H](Cc4ccc(O)cc4)NC(=O)CNC(=O)[C@H](CCC(=O)O)NC(=O)[C@H](CSSC[C@H](NC(=O)[C@H](CC(=O)O)NC(=O)CN)C(=O)N[C@@H](CC(C)C)C(=O)NCC(=O)N[C@@H](Cc4c[nH]c5ccccc45)C(=O)N[C@@H](Cc4ccccc4)C(=O)N[C@@H](CO)C(=O)NCC(=O)N3)NC2=O)C(=O)N[C@@H](Cc2c[nH]cn2)C(=O)N[C@@H](Cc2c[nH]c3ccccc23)C(=O)N[C@@H](CCCCN)C(=O)N[C@@H](Cc2ccc(O)cc2)C(=O)N2CCC[C@H]2C(=O)N[C@@H](Cc2c[nH]c3ccccc23)C(=O)N1)C(=O)O` [Y31W], the values for the half-maximal inhibitory concentration (IC50) at hNaV1.7, at hNaV1.3 and at hNaV1.2 were 80 nM, 160 nM and 89 nM, respectively.
